Assay type: physicochemical
Description: The temperature was adjusted to 90° C. The 2,4-DHBP concentration in the feed DIOPAT suspension of the diafiltration was about 0.32%. […] Thus, some 2,4-DHBP probably was already precipitated and had to be brought back into solution during the DF process. In the DF process, the DIOPAT suspension was held at 90° C. and was permanently washed with 12 kg fresh water. During the washing process, the DIOPAT concentration stayed constant. To separate the Al-salts and organic by-products, the DIOPAT suspension was pumped from the feed vessel to a ceramic membrane module and from there back to the feed vessel. In the ceramic membrane, the dissolved components (Al-salts and some org. components such as 2,4-DHBP) passed through the membrane. The DIOPAT particles stayed in the suspension and went back to the feed vessel. The permeate was send to the waste water treatment plant. In total, the suspension at the beginning of the membrane process (suspension after precipitation) was washed with a washing factor of 4.5. Then, the Al-salt concentration in the retentate was less than approx. 65 ppm.

## O=C(c1ccccc1)c1ccc(O)cc1O [2,4-DHBP, 2,4-dihydroxybenzophenone]
  solubility in acidic water: about 0.18%
